In patent US20170333393A1, “INJECTABLE ANTIOXIDANT FORMULATION FOR INTRAVENOUS USE OF SODIUM ASCORBATE IN HIGH DOSAGE, N-ACETYL CYSTEINE, AND DEFEROXAMINE; METHOD OF ADMINISTRATION AND USE FOR PREVENTING INJURY DUE TO REPERFUSION; AND KIT” (UNIVERSIDAD DE CHILE, priority 2014, published 2017):

Columns and labels:
isolated rat hearts = test: Langendorff isolated heart model, ischemia/reperfusion; recovery of contractibility; parameters: species or system Sprague-Dawley rat; details: 30 min regional ischemia, 60 min reperfusion; N-acetyl cysteine 36.8 mmol/L, deferoxamine 3.9 mmol/L; N=3 rats per group
Excerpt: Laboratory trials in murine model, by means of the use of the Langendorff isolated heart model, allowed to preliminarily establish the contribution of the secondary components of the solution in isolated form, in conjunction and in tri-association with sodium ascorbate on the attenuation of lethal reperfusion by means of the evaluation of the percentage of recovery of contractibility, subsequent to the reestablishment of the blood flow, […]
Sprague-Dawley adult male rats (250 to 300 g) were anesthetized with pentobarbital (80 mg/kg IP). Heparine (100 U/kg IV) was administered and the hearts were rapidly extracted and perfused with Krebs-Henseleit solution oxygenated in a Langendorff perfusion system at 37° C. […] The ventricular pressure was measured with a latex balloon inserted, in the left ventricular and connected to a pressure transductor. […]
Evaluation of the injury: The capacity was measured of both components isolated, in conjunction and in tri-association with sodium ascorbate in high dosage, in order to recover the cardiac contractibility, loss associated to the injury due to reperfusion.
For the analysis of the results parametric statistic of the continuous variables was used, expressing the position in terms of arithmetic mean and dispersion based on the standard deviation. The differences between multiple groups were analysed by means of ANOVA with Bonferroni test as Post-Hoc. […]

[1] = test system: patients diagnosed with acute myocardium infarction with indication of primary angioplasty; test: PREVEC Phase II randomized, double blind, placebo controlled clinical trial; left ventricular ejection fraction by cardiac magnetic resonance; type: in vivo, human
Experimental: In a group of 50 patients subjected to a primary angioplasty due to acute infarction diagnosis, treated only with massive dosage of sodium ascorbate (equivalent dosage to the one used in the three component formulation), a recovery was observed that has never before been reported of the cardiac function in a medium term, only referable to an attenuation of the late effects of the injury due to reperfusion. The evaluation was carried out by means of cardiac magnetic resonance, technique considered the present gold standard for this kind of studies.
A randomized, double blind, placebo controlled clinical trial was applied to patients diagnosed with acute myocardium infarction with indication of primary angioplasty, previously enrolled.
As inclusion criteria, was defined: Individuals of any sex older than 18 years of age; Latency of admission of up to 12 hours since presenting symptoms; First myocardium infarction; Killip 1 and 2; Capacity and willingness to sign consent form.
As exclusion criteria was established: Renal or hepathic insufficiency history; Cardiac failure history (NYHA III, IV); Cardiogenic shock; Comorbility that determines a life expectancy<6 months; Participation in another investigation; Pregnancy; Glucose 6—Phosphate Dehydrogenase deficiency.
Patients were administered an oral dose of vitamin E (800 IU), followed by a sodium ascorbate infusion (320 mmol/L). The placebo group received an inert infusion of sodium chloride solution of the same osmolarity as the sodium ascorbate infusion. Serial blood samples were taken to analyse biomarkers related to myocardium, injury, oxidative stress and inflammation in order to evaluated efficiency on injury due to early reperfusion. […]
The statistical analysis of the preliminary results, was carried out using non parametric statistics, using the median as position measurement, interquartile range as dispersion measurement and the Mann-Whitney U test to determine the statistical significance. Differences between the multiple groups was analysed by means of a Kruskal-Wallis test. […]

Row | Compound | improvement of recovery of contractibility regarding the control group (Placebo) (isolated rat hearts) [%] | early cardiac function (left ventricular ejection fraction), treated versus placebo ([1]; day 6 after primary angioplasty, sodium ascorbate infusion 320 mmol/L after oral vitamin E 800 IU) | change in left ventricular ejection (difference between day 84 and day 6), treated versus placebo ([1]; difference of values 84 and six days after angioplasty, p<0.05) | left ventricular ejection fraction, higher in treated patients versus placebo ([1]; three months (day 84) after primary angioplasty, sodium ascorbate infusion 320 mmol/L after oral vitamin E 800 IU, p<0.05) [%]
1 | CC(=O)N[C@@H](CS)C(=O)O [N-acetyl cysteine] | 189 |  |  | 
2 | CC(=O)N(O)CCCCCNC(=O)CCC(=O)N(O)CCCCCNC(=O)CCC(=O)N(O)CCCCCN [deferoxamine] | 113 |  |  | 
3 | O=C1O[C@H]([C@@H](O)CO)C([O-])=C1O.[Na+] [sodium ascorbate] |  | did not show any difference | significantly higher | 33
